Source: US20260248881A1, “PHARMACEUTICAL COMPOSITION COMPRISING FOXM1 INHIBITOR AND IMMUNE CHECKPOINT INHIBITOR FOR PREVENTING OR TREATING CANCER” (National Cancer Center, priority 2022, published 2026)

What was measured:
H1299 and PC9 cells [1] = assay: Cell proliferation assay (WST-1); type: cell-based, human; details: 5 μM TST or siRNA knockdown; 24, 48, and 72 hours; both cell lines
Method: H1299 and PC9 cells were grown in 96-well plates, treated with 5 µM TST, or transfected with siFOXM1 at a density of 3,000 cells/well […]. Cell proliferation was recorded at the specified times by adding 4-[3-(4-iodophenyl)-2-(4-nitro-phenyl)-2H-5-tetrazolio]-1,3-benzene sulfonate) (WST-1, #MK400, TaKaRa Bio) at 37° C. for 2 hours, and absorbance was measured at 450 nm. All experiments were performed in quadruplicate.

H1299 and PC9 cells [2] = assay: Cell cycle distribution analysis (PI staining, flow cytometry); type: cell-based, human
Method: Both H1299 and PC9 cells were enzymatically dissociated using TrypLE (#12605-010; Thermo Fisher Scientific), collected by centrifugation at 2,000×g for 2 minutes, resuspended in PBS, fixed in 70% ethanol, and stored overnight at 4° C. Fixed cells were pelleted, washed twice with PBS, resuspended in FxCycle propidium iodide (PI)/RNase staining solution (#F10797; Thermo Fisher Scientific), and incubated in the dark at 37° C. for 30 minutes. Flow cytometry was performed using a FACS-LSR Fortessa flow cytometer (BD Biosciences, Santa Clara, CA, USA).

[3] = In vivo toxicity in xenograft mice (serum biochemical analysis, H&E, TUNEL of normal tissues)
Method: IHC staining was performed using anti-rabbit-HRP antibodies (K4003, EnVision+ HRP Labelled Polymer Anti-Rabbit, Dako, Agilent Technologies, Carpinteria, CA, USA) and 3,3′-diaminobenzidine (DAB) (K3468, DAB+ Chromogen, Dako, Agilent Technologies, Santa Clara, CA, USA) as substrates, and the sections were counterstained with hematoxylin (K8008, EnVision FLEX Hematoxylin, Dako, Agilent Technologies Singapore, Singapore). To analyze the in vivo toxicity of the tested drugs, four xenograft mice from each group were used for serum biochemical analysis (Table 2). On day 9, serum samples were collected from the mice in the control and TST-treated groups. In addition, the vital organs (liver, spleen, and kidney) were collected form mice, sectioned, and stained with H&E to monitor histopathological changes.

[4] = cited from earlier work
[5] = vs NC siRNA or DMSO-treated group, time-dependent

thiostrepton [TST]
cell proliferation (H1299 and PC9 cells [1]): decreased in a time-dependent manner
G2 population (H1299 and PC9 cells [2]; both cell lines, vs DMSO-treated group): an increase in the G2 population
S phase population (H1299 and PC9 cells [2]; [5]): decreased a S phase population
sub-G0/G1 population (H1299 and PC9 cells [2]; [5]): increased the sub-G0/G1 population
histological changes in vital organs (H&E staining) ([3]; liver, spleen, kidney): no significant histological changes
A/G ratio ([3]; serum, day 9, n = 4): 1.99 ± 0.13
ALP ([3]; serum, day 9, n = 4): 91.50 ± 15.04 U/L
ALT ([3]; serum, day 9, n = 4): 31.25 ± 4.21 U/L
AST ([3]; serum, day 9, n = 4): 82.75 ± 8.58 U/L
Alb ([3]; serum, day 9, n = 4): 3.28 ± 0.08 g/dL
BUN ([3]; serum, day 9, n = 4): 19.70 ± 1.11 mg/dL
Crea ([3]; serum, day 9, n = 4): 0.00 ± 0.00 mg/dL
Glo ([3]; serum, day 9, n = 4): 1.65 ± 0.09 g/dL
Glu ([3]; serum, day 9, n = 4): 321.00 ± 58.73 mg/dL
T-Bill ([3]; serum, day 9, n = 4): 0.10 ± 0.00 mg/dL
T-chol ([3]; serum, day 9, n = 4): 107.50 ± 3.20 mg/dL
TG ([3]; serum, day 9, n = 4): 118.00 ± 14.88 mg/dL
TP ([3]; serum, day 9, n = 4): 4.93 ± 0.08 g/dL
levels of blood biomarkers ([3]; vs DMSO control group): not significantly changed
apoptotic cell death in normal tissues (TUNEL assay) ([3]; vs DMSO control tissues): no effect on apoptotic cell death in normal tissues
solubility in water [4]: low solubility in water
